Assay results taken from patent US12600757B2, “Peptides inhibiting gamma-c-cytokine activity and methods of use” (Bioniz, LLC, priority 2017, dated 2026).
Bridge positions count the residues as written; N and C are the ends. Square brackets hold non-standard residues; d marks the D form. Ends that are not written are not given here. Peptide text beside a SMILES is read from it. R5 = C=CCCC[C@@](C)(N)C(=O)O; S5 = C=CCCC[C@](C)(N)C(=O)O

Assays:
[1] = test system: T-cells in HAM/TSP culture; assay: Ex vivo spontaneous T-cell proliferation assay using HAM/TSP patient PBMC; assay type: cell-based, human; details: HAM/TSP peripheral blood ex vivo culture
Method: Proliferation assays were performed on HAM/TSP patient blood samples with and without the addition of BNZ-γ. These assays evaluated the ability of BNZ-γ to block the function of cytokines, such as IL-2 and IL-15, present in the ex vivo HAM/TSP patient blood culture and prevent spontaneous T-cell proliferation in these samples.
In an ex vivo spontaneous T-cell proliferation assay, PBMC from HAM/TSP patient was cultured at 1×10(6) cells per well of a 96 well plate in RPMI-10% FCS. Increasing concentrations of BNZ-γ peptide were added to each well. As a control, an irrelevant peptide was used in similar fashion. The cells were incubated in a 37° C. CO2 incubator for 3, 4, and 6 days. The amount of 1 uCi of ^3H-thymidine was added to the cells. After an additional 6 hour incubation, cells were harvested their proliferation rate was measured. As indicated in FIG. 5A-FIG. 5D, BNZ-γ peptide inhibits the spontaneous proliferation of T-cells in HAM/TSP culture at a concentration of about 1 ug/ml.
Other immunological markers were additionally measured in this assay. The percentage of the viral specific CD8 cells was measured during the ex vivo culture using viral protein tetramers. The population of CD4+CD25+ cells, a marker of T-cell activation, as well as Ki67 staining, a marker of T-cell proliferation, was monitored in a flow cytometry assay.

[2] = Time-course protease stability in simulated intestinal fluid (RP-HPLC); details: simulated intestinal fluid (USP), 37° C., over 60 minutes
Excerpt: To evaluate the gastric stability of the custom peptide derivatives containing one or more intra-peptide hydrocarbon linker elements of the present embodiments a time-course protease stability measurement of unmodified SEQ ID NO: 3 in comparison with a representative custom peptide derivative of SEQ ID NO: 3 containing one hydrocarbon linker element (SEQ ID NO: 39), and another representative custom peptide derivative of SEQ ID NO: 3 containing two hydrocarbon linker elements and certain amino acid positions in the (D) stereochemical configuration (SEQ ID NO: 57) was carried out in simulated intestinal fluid over 60 minutes. […] Simulated intestinal fluid was made according to USP specifications (Test Solutions, United States Pharmacopeia 36). 50 μL of 10 mg/mL peptide was mixed with 450 μL pre-warmed (37° C.) simulated intestinal fluid, and aliquots of the reaction mixture were removed at prescribed time intervals over a time-period of 60 minutes and stopped with 0.1 M HCl. Peptide stability was measured by reversed phase HPLC on a Phenomenex Aeris Peptide column (4.6×250 mm) with settings: 3.6 μm particle size, non-porous; 5.0 μL injection, 0.5 mL/min; mobile phase A: 25% Acetonitrile with 0.1% TFA; mobile phase B: 100% Acetonitrile with 0.1% TFA. The multi-step buffer gradient goes from 100% A to 100% B over 26 minutes. […]

[3] = test system: IL-15 mediated phosphorylation of STAT-5; assay: IL-15 mediated phosphorylation of STAT5 in CTLL-2 cells (immunoblot); assay type: cell-based, murine; details: anti-phospho-STAT5 immunoblot
Excerpt: (§1) Similar to the IL-15 induced tyrosine phosphorylation of STAT5 via Jak3, it is well known in the art that Jak-STAT signaling mediated via IL-21 receptor binding preferentially induces Jak-mediated tyrosine phosphorylation of STAT3 (Habib et al. 2003 J Allergy Clin Immunol. 112:1033-45). In accordance with these published data, the ability of SEQ ID NO: 3 to inhibit the tyrosine phosphorylation of the STAT5 molecule by IL-2 or IL-15 in CTLL-2 cells, and the ability of SEQ ID NO: 3 to inhibit the tyrosine phosphorylation of the STAT3 molecule by IL-21 in NK92 cells was examined (results shown in FIG. 4B).
(§2) CTLL-2 cells were stimulated by IL-2 or IL-15 in the presence or absence of SEQ ID NO: 3. CTLL-2 cells were also stimulated by IL-2 or IL-15 in the presence of anti-IL-2 antibody (R & D Systems, Catalog #MAB202, Minneapolis, MN) or anti-IL-15 antibody (R & D Systems, Catalog #MAB247, Minneapolis, MN) as positive controls. NK92 cells were stimulated by IL-21 in the presence or absence of SEQ ID NO: 3. NK92 cells were also stimulated by IL-21 in the presence of anti-IL-21 antibody (Mabtech, Catalog #3540-1-250, Cincinnati, OH) as a positive control. Cytoplasmic proteins were extracted from the cells according to a conventional method as described in Tagaya et al. 1996 EMBO J. 15:4928-39. […]

[4] = test system: IL-21 mediated phosphorylation of STAT-3; assay: IL-21 mediated phosphorylation of STAT3 in NK92 cells (immunoblot); assay type: cell-based, human; details: anti-phospho-STAT3 immunoblot
Excerpt: as §1, §2

[5] = test system: IL-2 mediated phosphorylation of STAT-5; assay: IL-2 mediated phosphorylation of STAT5 in CTLL-2 cells (immunoblot); assay type: cell-based, murine; details: anti-phospho-STAT5 immunoblot
Excerpt: as §1, §2

IL-21 = assay: NK92 cell proliferation assay (WST-1), IL-21 stimulated; assay type: cell-based, human; details: NK92 cells, 2 days
Excerpt: (§3) For each of the six γc-cytokines, indicator cell lines: NK92, a human NK cell line NK92 available by American Type Culture Collection (ATCC) (catalog #CRL-2407), CTLL-2, a murine CD8 T cells line available from ATCC, and PT-18, a murine mast cell line and its subclone PT-18β, is transfected with human IL-2Rβ gene to make the cells responsive to IL-2 and IL-15 (Tagaya et al., 1996, EMBO J. 15:4928-39), and is used to quantitatively determine the γc-cytokine's growth-promoting activity (See Current protocols in Immunology from Wiley and Sons for a methodological reference).
(§4) Once the appropriate doses of the cytokine that yield the 50-70% and 95% maximum response from the indicator cell line is determined, various concentrations (ranging from 1 μM to 10 μM) of the purified or synthesized custom derivative peptide is added to each well containing the cytokine and indicator cells. The reduction in light absorbance at 450 nm is used as an indicator of inhibition of cytokine-stimulated cellular proliferation.
(§5) The human NK cell line NK92 was used for a dose response of SEQ ID NO: 3 against IL-2, IL-15, and IL-21. Cells were cultured with 0.5 nM of recombinant IL-2 in RPMI 10% fetal Calf Serum. […] The growth-responses of the cells were determined 2 days after the introduction of SEQ ID NO: 3 and the cytokine using the WST-1 assay. […]

IL-15 = assay: NK92 cell proliferation assay (WST-1), IL-15 stimulated; assay type: cell-based, human; details: NK92 cells, 2 days
Excerpt: as §3, §4, §5

IL-2 = assay: NK92 cell proliferation assay (WST-1), IL-2 stimulated; assay type: cell-based, human; details: NK92 cells, 2 days
Excerpt: as §3, §4, §5

IL-4 = assay: NK92 cell proliferation assay (WST-1), IL-4 stimulated; assay type: cell-based, human; details: NK92 cells, peptide 2.5 μM (70% purity), 2 days
Excerpt: as §3, §4
as §5, with “to determine the γc-cytokine inhibitory specificity” for “for a dose response”, “3. In this assay the cells” for “3 against IL-2, IL-15, and IL-21. Cells”

IL-9 = assay: NK92 cell proliferation assay (WST-1), IL-9 stimulated; assay type: cell-based, human; details: NK92 cells, peptide 2.5 μM (70% purity), 2 days
Excerpt: as §3, §4
as §5, with “to determine the γc-cytokine inhibitory specificity” for “for a dose response”, “3. In this assay the cells” for “3 against IL-2, IL-15, and IL-21. Cells”

[6] = test system: IL-12 induction of IFNγ gene transcription; assay: IL-12 induced IFNγ gene transcription in NK92 cells (qPCR); assay type: cell-based; details: peptide 10 minutes pre-treatment, human IL-12 1 ng/mL for 2 hours
Excerpt: (§6) The cytokine interferon gamma (IFNγ) represents a useful marker for inflammation in multiple human immune-inflammatory disease states. Transcription of the IFNγ gene is inducible by IL-15, IL-21, the non-γc cytokine IL-12, and other select cytokines. The ability to block cytokine-induced IFNγ transcription therefore represents another useful approach to determine the biological activity of custom peptide derivatives.
(§7) NK92 cells were brought to a quiescent state by PBS washing and culturing in the absence of cytokine for 48 hours. Cells were treated with SEQ ID NO: […] for 10 minutes, and then stimulated with human IL-15, IL-21, or IL-12 at 1 ng/mL for 2 hours. A cytokine only treatment group, and another treatment group where the NK92 cells were left untreated by peptide, and not stimulated by cytokine were also included as control conditions. Following incubation with peptide and cytokine, cells were harvested, RNA was isolated for cDNA generation and used as template for qPCR analysis to quantify IFNγ transcripts.

[7] = test system: IL-15 induction of IFNγ gene transcription; assay: IL-15 induced IFNγ gene transcription in NK92 cells (qPCR); assay type: cell-based; details: peptide 10 minutes pre-treatment, human IL-15 1 ng/mL for 2 hours
Excerpt: as §6, §7

[8] = test system: IL-21 induction of IFNγ gene transcription; assay: IL-21 induced IFNγ gene transcription in NK92 cells (qPCR); assay type: cell-based; details: peptide 10 minutes pre-treatment, human IL-21 1 ng/mL for 2 hours
Excerpt: as §6, §7

[9] = peptide 0-0.1 μM (>99% purity), cytokine at 70% proliferation level

In the case of “IKEFLQRFIHIVQSIINTS [BNZ-γ, I-K-E-F-L-Q-R-F-I-H-I-V-Q-S-I-I-N-T-S]”, the “percent of live cells by Guava staining” value [1] is reported as “not impacted”.
For CC[C@H](C)[C@H](NC(=O)[C@]1(C)CCCC=CCCC[C@](C)(NC(=O)[C@@H](Cc2c[nH]cn2)NC(=O)[C@@]2(C)CCCC=CCCC[C@](C)(NC(=O)[C@@H](Cc3ccccc3)NC(=O)[C@@H](CCC(=O)O)NC(=O)[C@@H](CCCCN)NC(=O)[C@H]3CCCN3C(=O)[C@@H](CCCNC(=N)N)NC(=O)[C@@H](CCCNC(=N)N)NC(=O)[C@@H](CCCNC(=N)N)NC(=O)[C@H](N)CCCNC(=N)N)C(=O)N[C@@H](CCC(=O)O)C(=O)N[C@@H](CCCNC(=N)N)C(=O)N[C@@H](Cc3ccccc3)C(=O)N2)C(=O)N[C@@H](C(C)C)C(=O)N[C@@H](CCC(N)=O)C(=O)N[C@@H](CC(C)C)C(=O)N1)C(=O)N[C@H](Cc1c[nH]cn1)C(=O)N[C@H](CCC(N)=O)C(=O)N[C@H](CO)C(=O)N[C@H](CC(C)C)C(=O)N[C@H](CO)C(=O)O [SEQ ID NO: 57, {dR}-{dR}-{dR}-{dR}-{dP}-{dK}-{dE}-{dF}-{S5Ala1}-E-R-F-{R5Ala1}-{dH}-{S5Ala2}-V-Q-L-{S5Ala2}-I-{dH}-{dQ}-{dS}-{dL}-{dS}] (H-[dR][dR][dR][dR][dP][dK][dE][dF][S5]ERF[R5][dH][S5]VQL[S5]I[dH][dQ][dS][dL][dS]-OH; staple 9-13, 15-19; N-terminus and C-terminus assumed), the “percentage of undigested peptide present in simulated intestinal fluid, compared to the unmodified peptide” value [2] was “greatly enhanced”.
With “PKEFLERFVHLVQMFIHQSLS (PKEFLERFVHLVQMFIHQSLS) [SEQ ID NO: 3, 21-mer composite peptide of γc-cytokine D-helix regions]” the “IL-15 mediated phosphorylation of STAT-5” value [3] was “inhibited”, the “IL-21 mediated phosphorylation of STAT-3” value [4] was “inhibited” and the “IL-2 mediated phosphorylation of STAT-5” value [5] was “but not IL-2 mediated phosphorylation of STAT-5”. For the same compound, the “activity of IL-21 (dose response)” value (IL-21; [9]) was “potently inhibited”, the “activity of IL-21 (inhibitory specificity)” value (IL-21; peptide 2.5 μM (70% purity)) was “significantly reduced” and the “activity of IL-15 (dose response)” value (IL-15; [9]) was “potently inhibited”. The “activity of IL-15 (inhibitory specificity)” value (IL-15; peptide 2.5 μM (70% purity)) was “significantly reduced”, the “cellular proliferation stimulated by IL-2 (dose response)” value (IL-2; peptide 0-10 μM (>99% purity), cytokine at 70% proliferation level) was “not affected” and the “cellular proliferation stimulated by IL-2 (inhibitory specificity)” value (IL-2; peptide 2.5 μM (70% purity)) was “not affected”. The “cellular proliferation stimulated by IL-4 (inhibitory specificity)” value (IL-4) was “not affected” and the “cellular proliferation stimulated by IL-9 (inhibitory specificity)” value (IL-9) was “not affected”.
For “{S5Ala1}-P-K-E-{S5Ala1}-L-E-R-F-V-H-L-V-Q-K-{S5Ala2}-I-H-Q-{S5Ala2}-L-S [SEQ ID NO: 83]”, the “non-γc cytokine IL-12 induction of IFNγ gene transcription” value [6] was “did not block”, the “IL-15 induction of IFNγ gene transcription” value [7] was “inhibition” and the “IL-21 induction of IFNγ gene transcription” value [8] was “inhibition”.
